No end group written: not given here.
Tested on: E. coli Rosetta DE3 pLysS
Experiment: MIC, liquid broth microdilution assay
Format: cell-based, Escherichia coli
Details: 25% MHBII, 7.5 × 10^6 CFU/mL, 20 ± 2 h at 37 °C, turbidity at 600 nm, at least twice in triplicates
Description: Minimal inhibitory concentrations (MICs) were determined at least twice in triplicates, using a liquid broth microdilution assay in sterile 96-well plates and a total volume of 100 μL per well. Aqueous peptide solutions were serially two-fold diluted in 50 µL of 25% MHBII or LB medium (Luria/Miller). Overnight cultures were diluted in 25% MHBII or LB medium (Luria/Miller) to 1.5 × 10^7 cells per mL and an aliquot of 50 μL was added to each well. The final cell count in each well was 7.5 × 10^6 CFU/mL. The plates were incubated for 20 ± 2 h at 37 °C. The turbidity of each well was measured at 600 nm.

| Sequence | MIC [µg/mL] |
| --- | --- |
| GNNRPIYIPRPRPPHPRPIRV [Api805] | 4 |
| GNNRPVYIPRPRPPHPRL [Api801] | 2 |
